{
  "source": "patent US20230247995A1",
  "about": "“FUNGICIDAL COMBINATIONS” (UPL Corporation Limited, priority 2022, published 2023)",
  "format_in_all_cases": "in vivo",
  "key": {"Monilinia fructicola": {"system": "Monilinia fructicola", "assay": "Efficacy against brown rot affecting peach crop", "conditions": "Ipflufenoquin 4, Pyrimethanil 8.9, combination 4 + 8.9 fl oz/a; for % Severity on Fruit: untreated 63.8; for % Disease incidence on Fruit: untreated 96", "description": "Experiments were carried out to evaluate the efficacy of the fungicidal combination of ipflufenoquin and pyrimethanil against brown rot (Monilinia fructicola) affecting peach crop, as disclosed in Table 4."}, "Wilsonomyces spp.": {"system": "Wilsonomyces spp.", "assay": "Efficacy against Coryneum blight affecting peach crop", "conditions": "Ipflufenoquin 4, Pyrimethanil 8.9, combination 4 + 8.9 fl oz/a; for % Severity on Fruit: untreated 69.9; for % Disease incidence on Fruit: untreated 100", "description": "Experiments were carried out to evaluate the efficacy of the fungicidal combination of ipflufenoquin and pyrimethanil against Coryneum blight (Wilsonomyces spp.) affecting peach crop, as disclosed in Table 5."}, "Cladosporium sp.": {"system": "Cladosporium sp.", "assay": "Efficacy against scab affecting pecan (nuts)", "conditions": "untreated 33.8", "description": "Experiments were carried out to evaluate the efficacy of the fungicidal combination of ipflufenoquin and pyrimethanil (both tank mix fungicidal combination and pre-mix formulation as disclosed in Example 1) against scab (Cladosporium sp.) affecting pecan (i.e., nuts), as disclosed in Table 6."}, "[1]": {"conditions": "higher rates: Ipflufenoquin 5, Pyrimethanil 11.1, tank mix 5 + 11.1, pre-mix 12.5 fl oz/a"}, "[2]": {"conditions": "lower rates: Ipflufenoquin 4, Pyrimethanil 8.9, tank mix 4 + 8.9, pre-mix 10 fl oz/a"}},
  "data": [
    {"smiles": "Cc1cc(C)nc(Nc2ccccc2)n1", "note": "[Pyrimethanil, N-(4,6-dimethylpyrimidin-2-yl) aniline]", "values": [
      {"measurement": "% Severity on Fruit", "setting": "Monilinia fructicola", "result": 15.5, "unit": "%"},
      {"measurement": "% Disease incidence on Fruit", "setting": "Monilinia fructicola", "result": 19.5, "unit": "%"},
      {"measurement": "% Severity on Fruit", "setting": "Wilsonomyces spp.", "result": 42.8, "unit": "%"},
      {"measurement": "% Disease incidence on Fruit", "setting": "Wilsonomyces spp.", "result": 65.8, "unit": "%"},
      {"measurement": "% Severity on Nuts", "setting": "Cladosporium sp.; [1]", "result": 15.7, "unit": "%"},
      {"measurement": "% Severity on Nuts", "setting": "Cladosporium sp.; [2]", "result": 19.2, "unit": "%"}
    ]},
    {"smiles": "Cc1nc2c(F)c(F)ccc2cc1Oc1cccc(F)c1C(C)(C)O", "note": "[Ipflufenoquin, 2-{2-[(7,8-difluoro-2-methyl-3-quinolyl)oxy]-6-fluorophenyl}propan-2-ol]", "values": [
      {"measurement": "% Severity on Fruit", "setting": "Monilinia fructicola", "result": 20.3, "unit": "%"},
      {"measurement": "% Disease incidence on Fruit", "setting": "Monilinia fructicola", "result": 42.5, "unit": "%"},
      {"measurement": "% Severity on Fruit", "setting": "Wilsonomyces spp.", "result": 6.9, "unit": "%"},
      {"measurement": "% Disease incidence on Fruit", "setting": "Wilsonomyces spp.", "result": 36.8, "unit": "%"},
      {"measurement": "% Severity on Nuts", "setting": "Cladosporium sp.; [1]", "result": 6.7, "unit": "%"},
      {"measurement": "% Severity on Nuts", "setting": "Cladosporium sp.; [2]", "result": 8.4, "unit": "%"}
    ]}
  ]
}
